Assay results from patent US11459323B2, “Monocyclic β-lactam compound for treating bacterial infection” (MEDSHINE DISCOVERY INC., priority 2018, dated 2022).
Values after ≈ are worked out from the molar mass of the structure shown. Where two headings read alike, the source gives them in different places.

Tests used:
A. baumannii ATCC 17978 = assay: MIC by micro-liquid dilution method (CLSI); assay type: cell-based; conditions: Acinetobacter baumannii; A. baumannii ATCC17978; read-out: MIC
[1] = Body weight of mice in Pseudomonas aeruginosa lung infection experiment (1); assay type: in vivo, CD-1 (ICR) mice; conditions: Aztreonam group (400 mg/kg.day, ip)
Experimental: CD-1 (ICR) mice, provided by Beijing Charles River Laboratory Animal Technology Co., Ltd., weighing 23-27 g, 7 weeks old, female, a total of 64 mice.
The mice were weighed every day after the start of the experiment and the weight changes were recorded.
Graphpad Prism mapping software was used to make scatter plots of lung tissue CFU. SPSS19.0 software was used to count CFU and average body weight, and analysis of variance was used to analyze differences between groups.

[2] = system: Pseudomonas aeruginosa PA14; assay: Lungs of immunosuppressed mice infected with Pseudomonas aeruginosa (1), lung bacterial load; assay type: in vivo; conditions: 24 hours after infection, total dosage 400 mg/kg, day, ip at 2 h, 4 h, 6 h, 8 h
Experimental: Pseudomonas aeruginosa PA14. 64 mice were intraperitoneally injected with 150 mg/kg cyclophosphamide on the first day and the fourth day to give immunosuppressed mice. […] [table] The mice were injected with 50 μL of bacterial solution (2×10^3 CFU) through the airway. 2 hours after the infection, 4 mice in the model group was sacrificed by removing cervical vertebra. Two hours after infection, the drugs were administered by groups, and the mice were administered intraperitoneally once at 2 hours, 4 hours, 6 hours, and 8 hours, a total of 4 times. Mice of each group were sacrificed by removing cervical vertebra 24 hours after infection, lung and kidney tissues were taken aseptically and put into sterilized tissue homogenate tubes, weighed, and an appropriate amount of normal saline (NS) was added, the mixture was homogenized by a homogenizer for 1 min, the lung tissues of the model group were diluted 10^4, 10^5, 10^6 times, the lung tissues of each administration group were diluted 10, 100 times, the kidney tissues of the model group were diluted 10^2, […], 10^4 times, and the lung tissues of each administration group were diluted 10 times, the obtained mixtures were coated on TSA plates using spiral coater, then incubated at 37° C. overnight, and the CFU was counted with a colony counter. Graphpad Prism mapping software was used to make scatter plots of lung tissue CFU. SPSS19.0 software was used to count CFU and average body weight, and analysis of variance was used to analyze differences between groups.

E. coli ATCC 25922 = assay: MIC by micro-liquid dilution method (CLSI); assay type: cell-based; conditions: Escherichia coli
E. coli MG1655Δtol C = assay: MIC by micro-liquid dilution method (CLSI); assay type: cell-based; conditions: Escherichia coli
Excerpt: (§1) Three strains of Klebsiella pneumonia, K. pneumoniae ATCC BAA-205 (TEM-1/SHV-1/SHV-12), K. pneumoniae ATCC BAA-1705 (KPC-2), K. pneumoniae ATCC BAA-2470 (NDM-1); three strains of Pseudomonas aeruginosa, P. aeruginosa NCTC13437 (VIM-10; VEB-1), P. aeruginosa PA 14 and P. aeruginosa ATCC 35151; four strains of Escherichia coli, E. coli NCTC 13476 (IMP-1 type), E. coli ATCC BAA-2523 (OXA-48), E. coli MG1655Δtol C, E. coli ATCC 25922; one strain of Acinetobacter baumannii, A. baumannii ATCC 17978 and one strain of Staphylococcus aureus, S. aureus NRS384 were used to determine the minimum inhibitory concentration (MIC) of the compounds by micro-liquid dilution method according to the Institute of Clinical and Laboratory Standard (CLSI) requirements.

[3] = system: E. coli ATCC BAA-2523 (OXA-48); assay: MIC by micro-liquid dilution method (CLSI); assay type: cell-based; conditions: Escherichia coli, ATCCBAA2523; E. coli ATCCBAA-2523; read-out: MIC
Excerpt: as §1

[4] = system: E. coli NCTC 13476 (IMP-1 type); assay: MIC by micro-liquid dilution method (CLSI); assay type: cell-based; conditions: Escherichia coli; E. coli NCTC13476; read-out: MIC
Excerpt: as §1

P. aeruginosa PA 14 = assay: MIC by micro-liquid dilution method (CLSI); assay type: cell-based; conditions: Pseudomonas aeruginosa, PA14; P. aeruginosa PA 14; read-out: MIC
Excerpt: as §1

[5] = system: K. pneumoniae ATCC BAA-205 (TEM-1/SHV-1/SHV-12); assay: MIC by micro-liquid dilution method (CLSI); assay type: cell-based, Klebsiella pneumonia; conditions: Klebsiella pneumoniae, ATCCBAA205
[6] = system: K. pneumoniae ATCC BAA-2470 (NDM-1); assay: MIC by micro-liquid dilution method (CLSI); assay type: cell-based, Klebsiella pneumonia; conditions: Klebsiella pneumoniae, ATCCBAA2470
[7] = system: K. pneumoniae ATCC BAA-1705 (KPC-2); assay: MIC by micro-liquid dilution method (CLSI); assay type: cell-based, Klebsiella pneumonia; conditions: Klebsiella pneumoniae, ATCCBAA1705

With `C[C@H]1[C@H](NC(=O)/C(=N\OC(C)(C)C(=O)O)c2csc(N)n2)C(=O)N1S(=O)(=O)O` [Aztreonam, reference compound] the MIC (A. baumannii ATCC 17978) was 32 µg/mL (≈ 73.5 µM), the “Body weight on the fifth day” value [1] was 28.02 ± 1.08 g and the “Body weight on the first day” value [1] was 27.16 ± 1.74 g. For the same compound, the “Body weight on the fourth day” value [1] was 27.80 ± 2.37 g, the LOG10-of bacterial load [2] was 1.62 ± 2.22 and the MIC (E. coli ATCC 25922; E. coli ATCC25922, read-out: MIC) was 0.25 µg/mL (≈ 0.574 µM). For the same compound, the MIC (E. coli MG1655Δtol C) was ≤ 0.125 µg/mL, the MIC [3] was 16 µg/mL (≈ 36.7 µM) and the MIC [4] was 0.25 µg/mL (≈ 0.574 µM). The MIC (P. aeruginosa PA 14) was 8 µg/mL (≈ 18.4 µM).

With `C[C@@H](O)[C@H]1C(=O)N2C(C(=O)O)=C(S[C@@H]3CN[C@H](C(=O)N(C)C)C3)[C@H](C)[C@H]12` [Meropenem, reference compound] the MIC [5] was ≤ 0.125 µg/mL, the MIC [6] was > 128 µg/mL and the MIC (E. coli ATCC 25922; ATCC25922) was ≤ 0.125 µg/mL. The MIC [7] was 128 µg/mL (≈ 334 µM), the MIC (E. coli MG1655Δtol C) was ≤ 0.125 µg/mL and the MIC [3] was 2 µg/mL (≈ 5.22 µM). For the same compound, the MIC [4] was 32 µg/mL (≈ 83.4 µM) and the MIC (P. aeruginosa PA 14) was 0.5 µg/mL (≈ 1.3 µM).
